Assay results from ChEMBL document CHEMBL1128041, “Thiophene derivatives as extremely high affinity P3 ligands for the hydroxyethylpiperazine class of HIV-1 protease inhibitors” (Bioorg Med Chem Lett, 1995).
≈ marks a conversion by molar mass, not a printed value.

tested on: not listed separately; experiment: Maximal plasma concentration was determined.; assay type: ADME, organism-based; settings: rat

Cmax [nM] | Compound
> 1000 | CC(C)[C@@H]1[C@H](OC(=O)N[C@@H](Cc2ccccc2)[C@H](O)CN2CCN(CCc3cccs3)C[C@H]2C(=O)NC(C)(C)C)CCS1(=O)=O

tested on: not listed separately; experiment: Solubility at pH 5.2; assay type: physicochemical; settings: buffer

solubility [µg/mL] | Compound
37.2 (≈ 51.1 µM) | CC(C)[C@@H]1[C@H](OC(=O)N[C@@H](Cc2ccccc2)[C@H](O)CN2CCN(Cc3cc(Br)cs3)C[C@H]2C(=O)NC(C)(C)C)CCS1(=O)=O
11.1 (≈ 15.7 µM) | CC(C)[C@@H]1[C@H](OC(=O)N[C@@H](Cc2ccccc2)[C@H](O)CN2CCN(Cc3cc4ccsc4s3)C[C@H]2C(=O)NC(C)(C)C)CCS1(=O)=O
1270 (≈ 1920 µM) | CC(C)[C@@H]1[C@H](OC(=O)N[C@@H](Cc2ccccc2)[C@H](O)CN2CCN(CCc3cccs3)C[C@H]2C(=O)NC(C)(C)C)CCS1(=O)=O
6.9 (≈ 9.79 µM) | CC(C)[C@@H]1[C@H](OC(=O)N[C@@H](Cc2ccccc2)[C@H](O)CN2CCN(Cc3cc4sccc4s3)C[C@H]2C(=O)NC(C)(C)C)CCS1(=O)=O

tested on: MT4; experiment: Compound was tested in vitro for antiviral activity against MT-4 human lymphoid cells infected with the HIV IIIb isolate; value ranges from 25-50; assay type: functional; settings: read-out: CIC95

Compound | IC95 [nM]
CC(C)[C@@H]1[C@H](OC(=O)N[C@@H](Cc2ccccc2)[C@H](O)CN2CCN(CCc3cccs3)C[C@H]2C(=O)NC(C)(C)C)CCS1(=O)=O | 25
CC(C)[C@@H]1[C@H](OC(=O)N[C@@H](Cc2ccccc2)[C@H](O)CN2CCN(Cc3cccs3)C[C@H]2C(=O)NC(C)(C)C)CCS1(=O)=O | 25

biological target: Human immunodeficiency virus type 1 protease (Human immunodeficiency virus 1, UniProt Q72874); experiment: Inhibition of HIV-1 Protease; settings: not given

Compound | IC50 [nM]
CC(C)[C@@H]1[C@H](OC(=O)N[C@@H](Cc2ccccc2)[C@H](O)CN2CCN(Cc3csc4ccc(Cl)cc34)C[C@H]2C(=O)NC(C)(C)C)CCS1(=O)=O | 0.47

tested on: MT4; experiment: Compound was tested in vitro for antiviral activity against MT-4 human lymphoid cells infected with the HIV IIIb isolate; assay type: functional; settings: read-out: CIC95

Compound | IC95 [nM]
CC(C)[C@@H]1[C@H](OC(=O)N[C@@H](Cc2ccccc2)[C@H](O)CN2CCN(Cc3cc(Br)cs3)C[C@H]2C(=O)NC(C)(C)C)CCS1(=O)=O | 25
CC(C)[C@@H]1[C@H](OC(=O)N[C@@H](Cc2ccccc2)[C@H](O)CN2CCN(Cc3cc4ccccc4s3)C[C@H]2C(=O)NC(C)(C)C)CCS1(=O)=O | 100
CC(C)[C@@H]1[C@H](OC(=O)N[C@@H](Cc2ccccc2)[C@H](O)CN2CCN(Cc3cc4ccsc4s3)C[C@H]2C(=O)NC(C)(C)C)CCS1(=O)=O | 12
CC(C)[C@@H]1[C@H](OC(=O)N[C@@H](Cc2ccccc2)[C@H](O)CN2CCN(Cc3ccc(-c4cccs4)s3)C[C@H]2C(=O)NC(C)(C)C)CCS1(=O)=O | 50
CCc1ccc(CCN2CCN(C[C@@H](O)[C@H](Cc3ccccc3)NC(=O)O[C@@H]3CCS(=O)(=O)[C@@H]3C(C)C)[C@H](C(=O)NC(C)(C)C)C2)s1 | 50
CC(C)[C@@H]1[C@H](OC(=O)N[C@@H](Cc2ccccc2)[C@H](O)CN2CCN(Cc3cc4sccc4s3)C[C@H]2C(=O)NC(C)(C)C)CCS1(=O)=O | 6
CC(C)[C@@H]1[C@H](OC(=O)N[C@@H](Cc2ccccc2)[C@H](O)CN2CCN(Cc3ccc(Br)s3)C[C@H]2C(=O)NC(C)(C)C)CCS1(=O)=O | 100
Cc1cc(CN2CCN(C[C@@H](O)[C@H](Cc3ccccc3)NC(=O)O[C@@H]3CCS(=O)(=O)[C@@H]3C(C)C)[C@H](C(=O)NC(C)(C)C)C2)cc(Cl)n1 | 25
CC(C)[C@@H]1[C@H](OC(=O)N[C@@H](Cc2ccccc2)[C@H](O)CN2CCN(Cc3ccsc3)C[C@H]2C(=O)NC(C)(C)C)CCS1(=O)=O | 50
CC(C)[C@@H]1[C@H](OC(=O)N[C@@H](Cc2ccccc2)[C@H](O)CN2CCN(CCc3ccsc3)C[C@H]2C(=O)NC(C)(C)C)CCS1(=O)=O | 50
CC(C)[C@@H]1[C@H](OC(=O)N[C@@H](Cc2ccccc2)[C@H](O)CN2CCN(Cc3csc4ccc(Cl)cc34)C[C@H]2C(=O)NC(C)(C)C)CCS1(=O)=O | 100

tested on: not listed separately; experiment: Solubility at pH 7.4; assay type: physicochemical; settings: buffer

solubility [µg/mL] | Compound
< 0.08 | CC(C)[C@@H]1[C@H](OC(=O)N[C@@H](Cc2ccccc2)[C@H](O)CN2CCN(Cc3cc(Br)cs3)C[C@H]2C(=O)NC(C)(C)C)CCS1(=O)=O
0.1 (≈ 0.142 µM) | CC(C)[C@@H]1[C@H](OC(=O)N[C@@H](Cc2ccccc2)[C@H](O)CN2CCN(Cc3cc4ccsc4s3)C[C@H]2C(=O)NC(C)(C)C)CCS1(=O)=O
91.3 (≈ 138 µM) | CC(C)[C@@H]1[C@H](OC(=O)N[C@@H](Cc2ccccc2)[C@H](O)CN2CCN(CCc3cccs3)C[C@H]2C(=O)NC(C)(C)C)CCS1(=O)=O
< 0.05 | CC(C)[C@@H]1[C@H](OC(=O)N[C@@H](Cc2ccccc2)[C@H](O)CN2CCN(Cc3cc4sccc4s3)C[C@H]2C(=O)NC(C)(C)C)CCS1(=O)=O
